Columns and labels:
[1] = system: bacterial mix from mouse fecal samples; assay: Growth of bacterial mix from fresh mouse fecal content in media with polyamines; assay type: cell-based; conditions: in vitro, various concentrations; exponential growth phase
From the text: (§1) The inventors next investigated whether culturing several bacteria with beneficial metabolic effects can be affected by presence of polyamines in the growth media. […] To further address whether the general growth of bacteria present in fresh fecal samples is affected, we inoculated fresh mouse fecal content in a growth media supplemented with various concentrations of spermine or spermidine.

Lactobacillus Gaseri = assay: Bacterial growth in media supplemented with polyamines; assay type: cell-based; conditions: in vitro, various concentrations in growth media
From the text: as §1

Lactobacillus Reuteri = assay: as above; assay type: cell-based; conditions: in vitro, various concentrations in growth media
From the text: as §1

[2] = system: Parabacteroides goldsteinii; assay: as above; assay type: cell-based; conditions: in vitro, various concentrations in growth media
From the text: as §1

ovariectomized mice [3] = assay: Insulin tolerance test in ovariectomized mice gavaged with bacteria; assay type: in vivo; conditions: 0.5 U/kg insulin, glycemia over 2 h
Protocol: (§2) Ovariectomy: Mice were anesthetised with Xylazin/Ketamin (injection of 120 μl of a mixture of 120 mg/kg ketamine and 16 mg/kg xylazine) and shaved below the ribs on the back side. Betadine was applied to the area for appropriate disinfection. After a 1-2 cm incision through the skin and the muscle layer just below the ribs, the ovary was localized, the fallopian tube ligated with dissolving suture and the ovary removed. The muscle layer was sutured with dissolving suture, the wound closed with staples and disinfected. The same procedure was performed on the other side. A dose of Tamgesic was administered 4 hours after the surgery, and the staples were removed 7 days after the surgery under isoflurane anaesthesia. The sham-operated animals underwent the same procedure, without ligating the fallopian tube and the ovary excision.
(§3) Single microbe transplantation: Lactobacillus Gasseri (DSM 20604) and Parabacteroides Goldsteinii (DSM 19948) were purchased from DSMZ. Lactobacillus reuteri (PTA-6475) and Akkermansia Muciniphila (BAA835) was purchased from ATCC. […]
(§4) Metabolic Experiments: Oral glucose tolerance tests (OGTT) were performed after 10 hr overnight fasting by oral gavage of glucose bolus ([…] body weight). […] Insulin level during the OGTT was measured with the Mouse Insulin ELISA kit (ref. 10-1247-01, Mercodia), following the manufacturer's instructions.

ovariectomized mice [4] = assay: Oral glucose tolerance test (OGTT) in ovariectomized mice gavaged with bacteria; assay type: in vivo; conditions: oral gavage every second day
Protocol: as §2, §3, §4

| Compound | Optical density of fecal bacterial mix [1] | Growth of Lactobacillus Gaseri (Lactobacillus Gaseri) | Growth of Lactobacillus Reuteri (Lactobacillus Reuteri) | Growth of Parabacteroides goldsteinii [2] | Insulin sensitivity (insulin tolerance test) (ovariectomized mice [3]) | Oral glucose tolerance (ovariectomized mice [4]) |
| --- | --- | --- | --- | --- | --- | --- |
| NCCCNCCCCNCCCN [spermine, N, N′-bis (3-aminopropyl)-1,4-butane diamine] | increased the optical density during the exponential growth phase | increased the growth | increased the growth | increased the growth | – | – |
| NCCCCNCCCN [spermidine] | increased the optical density during the exponential growth phase | increased the growth | increased the growth | increased the growth | – | – |
| Lactobacillus Reuteri | – | – | – | – | improved | improved |

— patent publication US11883447B2, “Methods and probiotic compositions for the treatment of metabolic diseases and disorders” (Research Development Foundation, priority 2019, dated 2024)
